Legend:
[1] = system: FC-induced apoptotic macrophages; conditions: phagocytes pre-treated with 100 μM for 15 minutes; compared to untreated phagocytes; FIG. 2
Protocol: Briefly, mouse peritoneal macrophages were labeled with the fluorophore calcein-AM (green) and then FC-loaded to induced apoptosis. Some of the macrophages were not FC-loaded, thus serving as a non-apoptotic control. The macrophages were added to a monolayer of octadecylrhodamine-labeled (red) macrophage phagocytes for 30 minutes at 37° C. The monolayers were then thoroughly rinsed with phosphate buffered saline (PBS). […] The percentage of rhodamine-labeled phagocytes with green inclusion was determined and quantified. Inclusion of green indicated the uptake of apoptotic cells into the phagocytes.

[2] = system: ingesting phagocytes (IPs) and non-IPs; assay: FC-induced apoptosis (annexin V) in IPs and non-IPs during 20 hour post-ingestion FC-loading; format: cell-based, mouse; conditions: 10 μM inhibitor; for apoptosis in IPs: 20 hours in FC-loading medium, FIG. 10A
Protocol: FIG. 10A is a bar graph depicting the results of experiments in which the protocol described in FIG. 9C was used and the percent apoptosis was determined in non-IPs (cross-hatched bars) and IPs (black bars) that were incubated for 20 hours in FC-loading medium either in the absence or presence of 10 μM of the IKK inhibitor PS1145, 10 μM of the PI-3 kinase/Akt inhibitor […], or both compounds.
(§1) FC-AMs were removed from the culture dish and cultured for 30 minutes with a monolayer of fresh macrophages (“phagocytes”) at an approximate ratio of 1:5 (FC-AMs:phagocytes). In certain experiments, the FC-AMs were labeled with Alexa Fluor 488 annexin V or Calcium Green™-AM for 20 minutes prior to addition to the phagocytes in order to mark those phagocytes that had ingested the FC-AMs (“ingesting phagocytes,” or “IPs”). The non-ingested apoptotic cells were then removed by thorough rinsing as described in Li et al. (2006, J. Biol. Chem. 281:6707-6717), and the phagocytes were incubated in fresh medium for the indicated times. In some experiments, the phagocytes were incubated during the post-ingestion incubation in medium containing acetyl-LDL and 58035 to maintain FC levels in the (ingesting phagocytes) IPs, inhibitors of Akt or NFκB, or various combinations of these reagents. To assay apoptosis in the phagocytes, the cells were stained with Alexa Fluor 594 annexin V and viewed by fluorescence microscopy. For quantification, 4-6 representative fields of cells at 40× magnification were counted to determine the number of apoptotic phagocytes and total phagocytes for each condition.
Because NFκB is known to signal survival responses in cells, the functional significance of NFκB signaling in the survival response of IPs against FC-induced apoptosis was investigated. […] The NFkB and Akt survival pathways might represent independent, complementary survival pathways or they may signal through a common final mediator. […]

[3] = system: ingesting phagocytes (IPs) and non-IPs; assay: UV-induced apoptosis (annexin V) in IPs and non-IPs; format: cell-based, mouse; conditions: 10 μM inhibitor, 8 hour incubation after UV irradiation, FIG. 12
[4] = system: cholesterol trafficking to ACAT in the ER; assay: Whole-cell cholesterol esterification assay in phagocytes after ingestion of FC-AMs; format: cell-based, mouse; conditions: 1 μM during the post-ingestion period; FIG. 7
Protocol: FIG. 7 is a bar graph depicting the results of experiments in which macrophages were incubated for 18 hours in medium alone (i.e., no exposure to FC-AMs) or in the same medium for the indicated time points after ingestion of FC-AMs. All of the incubations contained [^14C]oleate, and some of the phagocytes were incubated with 1 μM U18666A during the post-ingestion period to block cholesterol trafficking to the endoplasmic reticulum (ER). To make sure that the phagocytes would not be exposed to residual ACAT inhibitor in the FC-AMs, the FC-AMs for this experiment were generated by incubating macrophages from Acat1−/− mice with AcLDL without ACAT inhibitor. After the indicated time points, the macrophages were assayed for cholesteryl [^14C]oleate formation as an indicator of cholesterol trafficking to ACAT in the ER.
After a 30 minute incubation of phagocytes with FC-AMs that were made using acetyl-LDL and macrophages from Acat1^−/− mice (i.e., no ACAT inhibitor), non-ingested apoptotic cells were removed, and the phagocytes were incubated in fresh medium containing [^14C]oleate for specific times. […] Cholesterol esterification activity was then determined in lipid extracts of the cells by measuring the cellular content of cholesteryl [^14C]oleate by thin-layer chromatography (Tabas et al., 1987, J. Clin. Invest. 79:418-426). […]

apoptotic J774 cells = assay: Phagocytic uptake of apoptotic J774 cells by peritoneal macrophages, ROCK inhibitor (Example 4); format: cell-based; conditions: 10 μM, one hour pre-treatment, 45 minutes with apoptotic cells; vs untreated; FIG. 4
Protocol: As discussed in Example 6, statins can inhibit RhoA activation. RhoA activation inhibits phagocytic clearance of apoptotic cells and so inhibitors of RhoA or the downstream RhoA effector, Rho kinase (ROCK) can enhance or at least contribute to limit or decrease Rho-mediated inhibition of phagocytic clearance. […] In these experiments, peritoneal macrophages (phagocytes) were treated for one hour in the presence or absence of 10 μM Y-27632. Calcein-AM-labeled (green) apoptotic J774 cells (UV-irradiated) were then added to the phagocytes at a ratio of 1:1, in the absence or presence of Y-27632. After 45 minutes, non-internalized cells were removed by rinsing, and the percentage of phagocytes that had internalized labeled apoptotic macrophages was quantified by fluorescence microscopy. Results are depicted in FIG. 4 as the as the mean ±SEM; n=3 fields of cells, each containing approximately 150 cells.

[5] = system: UV-induced apoptotic J774 macrophages; assay: Phagocytosis of UV-induced apoptotic J774 macrophages by J744 murine macrophages (Example 4); format: cell-based; conditions: 10 μM, one hour pre-treatment, 45 minutes; vs untreated; FIG. 5
Protocol: In a similar experiment, J744 murine macrophages (phagocytes) were pretreated in the presence of absence of the ROCK inhibitor fasudil (10 μM) for one hour. The phagocytes were then incubated for 45 minutes, with or without fasudil, with fluorescently labeled UV-induced apoptotic J774 macrophages (“UV-Ams”). The percentage of phagocytes that had engulfed at least one UV-AM was quantified using fluorescent microscopy. […] Such compounds are useful for treating cardiovascular disease.

[6] = system: ingesting phagocytes (IPs); assay: Apoptosis in phagocytes that had ingested FC-AMs, incubated with SRA ligand; format: cell-based, mouse
Protocol: as §1
FC-induced apoptosis in macrophages requires UPR activation in combination with engagement of the type A scavenger receptor (SRA), both of which occur with acetyl-LDL-induced FC loading. […]

[7] = system: UV-irradiated apoptotic J774 cells; assay: Efferocytosis of UV-irradiated apoptotic J774 cells by cytokine pre-treated primary efferocytes; format: cell-based; conditions: pre-treated about 24 hours, challenged 30 minutes; FIG. 17
Protocol: FIG. 17. Primary efferocytes were pre-treated with the indicated cytokine for about 24 hours and then challenged for 30 minutes with UV-irradiated apoptotic J774 cells and the percent efferocytosis was determined.
Thus, drugs that mimic this effect can promote the uptake of apoptotic macrophages in advanced atherosclerotic lesions (see in allergic, cellular and humoral responses to parasitic and extracellular pathogens (see Nat Rev Immunol. 2003 January;3(1):23-35).

Molecule: CCN(CC)CC.Nc1ncnc2c1ncn2C1OC2COP(O)(=S)OC2C1O (single isomer, unassigned) [PKA inhibitor, adenosine 3′,5′-cyclic monophosphorothioate, Rp-isomer, triethylammonium salt]
- percentage of rhodamine-labeled phagocytes with green inclusion (uptake of FC-induced apoptotic macrophages) [1]: internalized more FC-induced apoptotic macrophages than untreated phagocytes

Molecule: O=c1cc(N2CCOCC2)oc2c(-c3ccccc3)cccc12 [LY294002]
- apoptosis in IPs [2]: 32.0±5.7%

Molecule: O=C(Nc1cc(Cl)cc2c1[nH]c1cnccc12)c1cccnc1 [PS1145]
- FC-induced apoptosis in IPs (in words) ([2]; 20 hours FC-loading, vs no inhibitor): very similar effect
- apoptosis in IPs [2]: 32.0±3.4%
- UV-induced apoptosis in non-IPs / compared to non-IPs [3]: no effect
- UV-induced apoptosis in IPs ([3]; vs no-inhibitor control): only a small increase

Molecule: CCN(CC)CCO[C@H]1CC[C@@]2(C)C(=CC[C@@H]3[C@@H]2CC[C@]2(C)C(=O)CC[C@@H]32)C1 [U18666A]
- FC-AM-induced increase in cholesterol esterification (cholesteryl [14C]oleate formation) [4]: completely blocked

Molecule: C[C@@H](N)[C@H]1CC[C@H](C(=O)Nc2ccncc2)CC1 [Y-27632, trans-4-[(1R)-1-aminoethyl]-N-pyridin-4-ylcyclohexanecarboxamide]
- percentage of phagocytes ingesting apoptotic macrophages (apoptotic J774 cells): increase

Molecule: O=S(=O)(c1cccc2cnccc12)N1CCCNCC1 [fasudil]
- percentage phagocytosis (phagocytes that had engulfed at least one UV-AM) [5]: increased

Molecule: fucoidan
- induction of apoptosis in the IPs [6]: did not induce apoptosis

B1: interleukin-4: cytokine that promotes alternative activation of macrophages (protein, UniProt P05112 25-153, looked up)
Interleukin-4: HKCDITLQEIIKTLNSLTEQKTLCTELTVTDIFAASKNTTEKETFCRAATVLRQFYSHHEKDTRCLGATAQQFHRHKQLIRFLKRLDRNLWGLAGLNSCPVKEANQSTLENFLERLKTIMREKYSKCSS
- percent efferocytosis (ability of phagocytes to engulf apoptotic macrophages) [7]: promotes the ability of these phagocytes to engulf apoptotic macrophages

From patent US20080267909A1, “PHAGOCYTE ENHANCEMENT THERAPY FOR ATHEROSCLEROSIS” (THE TRUSTEES OF COLUMBIA UNIVERSITY IN THE CITY OF NEW YORK, priority 2005, published 2008)
